Test results as given in patent US11033527B2, “Non-hormonal treatment of the genitourinary syndrome of menopause” (IMMUGEN PHARMA LLC, priority 2018, dated 2021).

What was measured:
vaginal tissue construct = assay: microarray analysis of differential gene expression (Affymetrix Human Gene 1.0 ST arrays), tissues treated for seven days via culture medium; type: cell-based; conditions: for VEGFA Fold Change: gene vascular endothelial growth factor A
Excerpt: The data from the Affymetrix Human Gene 1.0 ST arrays were normalized using the Robust Multiarray Average (RMA) algorithm and a Chip Definition File (CDF) that maps the probes on the array to unique Entrez Gene identifiers. The result is a matrix in which each column corresponds to a sample. The expression values are log 2-transformed by default.
By using a fold change >1.5, an analysis of differentially expressed genes was done to identify those genes which were involved in the cornified envelope, keratinocyte differentiation, cell differentiation, epidermis development, epithelial cell differentiation, junctional proteins and signaling, immune response and innate immune response.

EpiVaginal tissues = assay: macrophage infiltration in treated EpiVaginal tissues (barrier function), four hours in the presence of TNF-α; type: cell-based; conditions: vs. 28% into the untreated tissue; macrophages cultured with the tissue for four hours in the presence of TNF-α
Excerpt: FIG. 1 is a graph showing macrophage infiltration in hormone (estrogen) and L759,633-treated EpiVaginal tissues. L759,633 had the most striking effect on macrophage infiltration: only 6% of cells infiltrated into the tissue past 90 μm (vs. 28% into the untreated tissue, p<0.006 ANOVA). […] U=untreated control; E=estradiol; P=progesterone; and IMG=the cannabinoid L759,633.
Many of the above-noted genes are differentially regulated by estradiol in menopausal tissue. […] With respect to the barrier function, only 6% of macrophages which had been cultured with the tissue for four hours in the presence of TNF-α were capable of infiltrating into the tissue past 90 um (vs. 28% into the untreated tissue, p<0.006 ANOVA). […] This would indicate that the increased gene expression of the proteins involved with cross-linking of the keratin fibers, filagrins and desmosomal cadherins are all contributing to the fortification of the vaginal mucosa which would prevent the infiltration of pathogens and prevent the loss of solutes and water from within the tissue.

C[C@]12CC[C@@H]3c4ccc(O)cc4CC[C@H]3[C@@H]1CC[C@@H]2O [Estradiol, 17β-estradiol, reference compound]
SPRR2D Fold Change (vaginal tissue construct): 2.793 fold
WFDC12 Fold Change (vaginal tissue construct): 3.103 fold
CD74 Expr Fold Change (vaginal tissue construct; gene CD74 molecule): −1.89 fold
CD244 Expr Fold Change (vaginal tissue construct; gene CD244 molecule): 2.355 fold
CDSN Fold Change (vaginal tissue construct; gene Corneodesmosin): 3.011 fold
CCL28 Expr Fold Change (vaginal tissue construct; gene C−C motif chemokine ligand 28): −1.948 fold
FYB1 Expr Fold Change (vaginal tissue construct; gene FYN binding protein 1): −2.225 fold
IFNE Fold Change (vaginal tissue construct; gene Interferon Epsilon): 2.1 fold
NLRP10 Fold Change (vaginal tissue construct; gene NLR family pyrin domain containing 10): 4.199 fold
RNAse7 Fold Change (vaginal tissue construct; gene RNAse family): 3.387 fold
TNFRSF10C Expr Fold Change (vaginal tissue construct; gene TNF receptor superfamily member 10c): −2.162 fold
TGM1 Fold Change (vaginal tissue construct; gene Transglutaminase 1): 1.406 fold
TGM3 Fold Change (vaginal tissue construct; gene Transglutaminase 3): 15.681 fold
TGM5 Fold Change (vaginal tissue construct; gene Transglutaminase 5): 1.135 fold
VTCN1 Expr Fold Change (vaginal tissue construct; gene V-set domain containing T cell activation inhibitor 1): −2.364 fold
WFDC5 Fold Change (vaginal tissue construct; gene WAP four-disulfide core domain 5): 1.2 fold
ALOX12B Fold Change (vaginal tissue construct; gene arachidonate 12-lipoxygenase, 12R type): 2.207 fold
ALOXE3 Fold Change (vaginal tissue construct; gene arachidonate lipoxygenase 3): 1.371 fold
CSF2RB Expr Fold Change (vaginal tissue construct; gene colony stimulating factor 2 receptor beta common subunit): 1.517 fold
CNFN Fold Change (vaginal tissue construct; gene cornifelin): 1.3 fold
DMKN Fold Change (vaginal tissue construct; gene dermokine): 2.428 fold
DCS3 Fold Change (vaginal tissue construct; gene descmocollin 3): 1.2 fold
DSC1 Fold Change (vaginal tissue construct; gene desmocollin 1): 1.673 fold
DSC2 Fold Change (vaginal tissue construct; gene desmocollin 2): 1.3 fold
DSG1 Fold Change (vaginal tissue construct; gene desmoglein 1): 4.964 fold
FLG Fold Change (vaginal tissue construct; gene filaggrin): 3.212 fold
FLG2 Fold Change (vaginal tissue construct; gene filaggrin family member 2): 2.766 fold
KPRP Fold Change (vaginal tissue construct; gene human keratinocyte proline rich protein): 5.557 fold
IL23A Expr Fold Change (vaginal tissue construct; gene interleukin 23 subunit alpha): 2.912 fold
IL36A Expr Fold Change (vaginal tissue construct; gene interleukin 36 alpha): 3.409 fold
IL36RN Expr Fold Change (vaginal tissue construct; gene interleukin 36 receptor antagonist): 2.751 fold
KLK6 Fold Change (vaginal tissue construct; gene kallikrein related peptidase 6): 2.769 fold
KLK8 Fold Change (vaginal tissue construct; gene kallikrein related peptidase 8): 1.831 fold
KLK10 Fold Change (vaginal tissue construct; gene kallikrein related peptidase 10): 2.043 fold
KLK12 Fold Change (vaginal tissue construct; gene kallikrein related peptidase 12): 4.018 fold
KLK13 Fold Change (vaginal tissue construct; gene kallikrein related peptidase 13): 4.626 fold
KRT1 Fold Change (vaginal tissue construct; gene keratin 1): 1.949 fold
KRT2 Fold Change (vaginal tissue construct; gene keratin 2): 1.214 fold
KRT20 Fold Change (vaginal tissue construct; gene keratin 20): −3.702 fold
KRT23 Fold Change (vaginal tissue construct; gene keratin 23): 1.891 fold
KRT24 Fold Change (vaginal tissue construct; gene keratin 24): 1.673 fold
KRTDAP Fold Change (vaginal tissue construct; gene keratinocyte differentiation associated protein): 13.936 fold
LCE1A Fold Change (vaginal tissue construct; gene late cornified envelope 1A): 1.307 fold
LCE1C Fold Change (vaginal tissue construct; gene late cornified envelope 1C): 1.262 fold
LCE1F Fold Change (vaginal tissue construct; gene late cornified envelope 1F): 1.317 fold
LCE2A Fold Change (vaginal tissue construct; gene late cornified envelope 2A): 2.026 fold
LCE2B Fold Change (vaginal tissue construct; gene late cornified envelope 2B): 1.89 fold
LCE2C/LCE2D Fold Change (vaginal tissue construct; gene late cornified envelope 2D): 1.903 fold
LCE5A Fold Change (vaginal tissue construct; gene late cornified envelope 5A): 1.454 fold
LIPM Fold Change (vaginal tissue construct; gene lipase family member M): 3.572 fold
LIPN Fold Change (vaginal tissue construct; gene lipase family member N): 4.57 fold
LIPN1 Fold Change (vaginal tissue construct; gene lipin 1): 2.831 fold
LOR Fold Change (vaginal tissue construct; gene loricrin): 1.207 fold
HLA-DPA1 Expr Fold Change (vaginal tissue construct; gene major histocompatibility complex, class II, DP alpha 1): −1.8 fold
HLA-DRA Expr Fold Change (vaginal tissue construct; gene major histocompatibility complex, class II, DR alpha): −2.234 fold
HLA-DRB6 Expr Fold Change (vaginal tissue construct; gene major histocompatibility complex, class II, DR beta 6 (pseudogene)): −2.5 fold
MUCL1 Fold Change (vaginal tissue construct; gene mucin like 1): 2.857 fold
PLA2G2F Fold Change (vaginal tissue construct; gene phospholipase A2 group IIF): 1.824 fold
PLA2G3 Fold Change (vaginal tissue construct; gene phospholipase A2 group III): 1.64 fold
PLA2G4D Fold Change (vaginal tissue construct; gene phospholipase A2 group IVD): 2.046 fold
PLA2G4E Fold Change (vaginal tissue construct; gene phospholipase A2 group IVE): 2.442 fold
PLA2G10 Fold Change (vaginal tissue construct; gene phospholipase A2 group X): −2.948 fold
SERPINB12 Fold Change (vaginal tissue construct; gene serpin family B member 12): 1.3 fold
SPRR2G Fold Change (vaginal tissue construct; gene small proline rich protein 2G): 4.664 fold
SPRR4 Fold Change (vaginal tissue construct; gene small proline rich protein 4): 2.669 fold
SLC44A4 Fold Change (vaginal tissue construct; gene solute carrier family 44 member 4): −1.8 fold
SBSN Fold Change (vaginal tissue construct; gene suprabasin): 3.449 fold
TLR3 Expr Fold Change (vaginal tissue construct; gene toll like receptor 3): −2.081 fold
TRPV3 Fold Change (vaginal tissue construct; gene transient receptor potential cation channel subfamily V member 3): 1.6 fold
VEGFA Fold Change (vaginal tissue construct): 1.2 fold
VEGFA Fold Change (vaginal tissue construct; listed as estradiol): 2.2 fold
HLA-DMA expression (vaginal tissue construct; result in words): down-regulate
HLA-DMB expression (vaginal tissue construct; result in words): down-regulate
macrophages infiltrated into the tissue past 90 μm (EpiVaginal tissues): 16%
